Measured values reported in US20200016136A1 (VIIV HEALTHCARE UK (NO. 5) LIMITED, priority 2017, published 2020).

These molecules were tested on NL-RLuc virus (recombinant NL4-3 HIV with Renilla Luciferase gene) (assay: Inhibition of HIV replication (NL-RLuc virus in MT-2 cells, luciferase readout)). Conditions: MT2, 120 h.
Format: cell-based, Human immunodeficiency virus (HIV)
Description: Inhibition of HIV Replication:
A recombinant NL-RLuc proviral clone was constructed in which a section of the nef gene form NL4-3 was replaced with the Renilla Luciferase gene. This virus is fully infectious and can undergo multiple cycles of replication in cell culture. In addition, the luciferous reporter provides a simple and easy method for quantitating the extent of virus growth and consequently, the antiviral activity of test compounds. The plasmid pNLRLuc contains the proviral NL-Rluc DNA cloned into pUC18 at the PvuII site. The NL-RLuc virus was prepared by transfection of 293T cells with the plasmid pNLRLuc. Transfections were performed using the LipofectAMINE PLUS kit form Invitrogen (Carlsbad, Calif.) according to the manufacturer and the virus generated was titered in MT-2 cells. For susceptibility analyses, the titrated virus was used to infect MT-2 cells in the presence of compound, and after 5 days of incubation, cells were processed and quantitated for virus growth by the amount of expressed luciferase. Assay media was RPMI 1640 supplemented with 10% heat inactivated fetal bovine serum (FBS), 100 units/ml penicillin G/100 units/ml streptomycin, 10 mM HEPES buffer pH 7.55 and 2 mM L-glutamine. The results form at least 2 experiments were used to calculate the EC50 values. Luciferase was quantitated using the Dual Luciferase kit form Promega (Madison, Wis.). Susceptibility of viruses to compounds was determined by incubation in the presence of serial dilutions of the compound. The 50% effective concentration (EC50) was calculated by using the exponential form of the median effect equation where (Fa)=1/[1+(ED50/drug conc.)^m](Johnson V A, Byington R T. Infectivity Assay. In Techniques in HIV Research. ed. Aldovini A, Walker B D. 71-76. New York: Stockton Press. 1990).

Point of comparison: `Cc1cccc(Cl)c1CN1CCc2cc(-c3c(NCc4ccn[nH]4)nc(C)c([C@H](OC(C)(C)C)C(=O)O)c3N3CCC(C)(C)CC3)ccc2C1` [Example 6, (S)-2-(6-(((1H-Pyrazol-5-yl)methyl)amino)-5-(2-(2-chloro-6-methylbenzyl)-1,2,3,4-tetrahydroisoquinolin-6-yl)-4-(4,4-dimethylpiperidin-1-yl)-2-methylpyridin-3-yl)-2-(tert-butoxy)acetic Acid], EC50 18 nM. Against it:
- Cc1nc(C)c([C@H](OC(C)(C)C)C(=O)O)c(N2CCC(C)(C)CC2)c1-c1ccc2c(c1)CCN(c1nc(Cl)nc(N3CCOCC3)n1)C2 [Example 58, (S)-2-(tert-Butoxy)-2-(5-(2-(4-chloro-6-morpholino-1,3,5-triazin-2-yl)-1,2,3,4-tetrahydroisoquinolin-6-yl)-4-(4,4-dimethylpiperidin-1-yl)-2,6-dimethylpyridin-3-yl)acetic Acid] — 2.2-fold lower, 8 nM
- Cc1nc(C)c([C@H](OC(C)(C)C)C(=O)O)c(N2CCC(C)(C)CC2)c1-c1ccc2c(c1)CCN(c1nccc(N3CCCC3)n1)C2 [Example 21, (2S)-2-(tert-Butoxy)-2-[4-(4,4-dimethylpiperidin-1-yl)-2,6-dimethyl-5-{2-[4-(pyrrolidin-1-yl)pyrimidin-2-yl]-1,2,3,4-tetrahydroisoquinolin-6-yl}pyridin-3-yl]acetic Acid] — 9-fold lower, 2 nM
- Cc1cc(F)ccc1CN1CCc2cc(-c3cnc(Cl)c([C@H](OC(C)(C)C)C(=O)O)c3N3CCC(C)(C)CC3)ccc2C1 [Example 113, (S)-2-(tert-Butoxy)-2-(2-chloro-4-(4,4-dimethylpiperidin-1-yl)-5-(2-(4-fluoro-2-methylbenzyl)-1,2,3,4-tetrahydroisoquinolin-6-yl)pyridin-3-yl)acetic Acid] — 6-fold lower, 3 nM
- Cc1nc(C)c([C@H](OC(C)(C)C)C(=O)O)c(N2CCC(C)(C)CC2)c1-c1ccc2c(c1)CCN(c1cc(N3CCC(N4CCOCC4)CC3)ncn1)C2 [Example 134, (S)-2-(tert-Butoxy)-2-(4-(4,4-dimethylpiperidin-1-yl)-2,6-dimethyl-5-(2-(6-(4-morpholinopiperidin-1-yl)pyrimidin-4-yl)-1,2,3,4-tetrahydroisoquinolin-6-yl)pyridin-3-yl)acetic Acid] — 4.5-fold lower, 4 nM
- Cc1nc(C)c([C@H](OC(C)(C)C)C(=O)O)c(N2CCC(C)(C)CC2)c1-c1ccc2c(c1)CCN(c1ccnc(N3CCC3)n1)C2 [Example 18, (2S)-2-(5-{2-[2-(Azetidin-1-yl)pyrimidin-4-yl]-1,2,3,4-tetrahydroisoquinolin-6-yl}-4-(4,4-dimethylpiperidin-1-yl)-2,6-dimethylpyridin-3-yl)-2-(tert-butoxy)acetic Acid] — 18-fold lower, 1 nM
- Cc1nc(C)c([C@H](OC(C)(C)C)C(=O)O)c(N2CCC(C)(C)CC2)c1-c1ccc2c(c1)CCN(c1nccc(N3CCC(CCO)CC3)n1)C2 [Example 81, (S)-2-(tert-Butoxy)-2-(4-(4,4-dimethylpiperidin-1-yl)-5-(2-(4-(4-(2-hydroxyethyl)piperidin-1-yl)pyrimidin-2-yl)-1,2,3,4-tetrahydroisoquinolin-6-yl)-2,6-dimethylpyridin-3-yl)acetic Acid] — 4.5-fold lower, 4 nM
- Cc1nc(C)c([C@H](OC(C)(C)C)C(=O)O)c(N2CCC(C)(C)CC2)c1-c1ccc2c(c1)CCN(c1nccc(N3CCC3)n1)C2 [Example 19, (2S)-2-(5-{2-[4-(Azetidin-1-yl)pyrimidin-2-yl]-1,2,3,4-tetrahydroisoquinolin-6-yl}-4-(4,4-dimethylpiperidin-1-yl)-2,6-dimethylpyridin-3-yl)-2-(tert-butoxy)acetic Acid] — 18-fold lower, 1 nM
- Cc1nc(C)c([C@H](OC(C)(C)C)C(=O)O)c(N2CCC(C)(C)CC2)c1-c1ccc2c(c1)CCN(c1ccnc(N3CCN(C)CC3)n1)C2 [Example 39, (2S)-2-(tert-Butoxy)-2-[4-(4,4-dimethylpiperidin-1-yl)-2,6-dimethyl-5-{2-[2-(4-methylpiperazin-1-yl)pyrimidin-4-yl]-1,2,3,4-tetrahydroisoquinolin-6-yl}pyridin-3-yl]acetic Acid] — 3.6-fold lower, 5 nM
- CC1(C)CCN(Cc2nc(Cl)c([C@H](OC(C)(C)C)C(=O)O)c(N3CCC(C)(C)CC3)c2-c2ccc3c(c2)CCN(c2ncnc4c2oc2ccccc24)C3)CC1 [Example 96, (S)-2-(5-(2-(Benzofuro[3,2-d]pyrimidin-4-yl)-1,2,3,4-tetrahydroisoquinolin-6-yl)-2-chloro-4-(4,4-dimethylpiperidin-1-yl)-6-((4,4-dimethylpiperidin-1-yl)methyl)pyridin-3-yl)-2-(tert-butoxy)acetic Acid] — 60-fold lower, 0.3 nM
- CC1(C)CCN(c2c(-c3ccc4c(c3)CCN(c3ncnc5c3oc3ncccc35)C4)c(CN3CCC4(CCC4)CC3)nc(Cl)c2[C@H](OC(C)(C)C)C(=O)O)CC1 [Example 152, (S)-2-(6-((7-Azaspiro[3.5]nonan-7-yl)methyl)-2-chloro-4-(4,4-dimethylpiperidin-1-yl)-5-(2-(pyrido[3′,2′:4,5]furo[3,2-d]pyrimidin-4-yl)-1,2,3,4-tetrahydroisoquinolin-6-yl)pyridin-3-yl)-2-(tert-butoxy)acetic Acid] — 180-fold lower, 0.1 nM
- Cc1nc(C)c([C@H](OC(C)(C)C)C(=O)O)c(N2CCC(C)(C)CC2)c1-c1ccc2c(c1)CCN(c1cc(N3CCOCC3)ncn1)C2 [Example 119, (S)-2-(tert-Butoxy)-2-(4-(4,4-dimethylpiperidin-1-yl)-2,6-dimethyl-5-(2-(6-morpholinopyrimidin-4-yl)-1,2,3,4-tetrahydroisoquinolin-6-yl)pyridin-3-yl)acetic Acid] — 3.6-fold lower, 5 nM
- Cc1nc(C)c([C@H](OC(C)(C)C)C(=O)O)c(N2CCC(C)(C)CC2)c1-c1ccc2c(c1)CCN(c1nccc(N3C4CCCC3COC4)n1)C2 [Example 35, (2S)-2-(tert-Butoxy)-2-[4-(4,4-dimethylpiperidin-1-yl)-2,6-dimethyl-5-[2-(4-{3-oxa-9-azabicyclo[3.3.1]nonan-9-yl}pyrimidin-2-yl)-1,2,3,4-tetrahydroisoquinolin-6-yl]pyridin-3-yl]acetic Acid] — 6-fold lower, 3 nM
- Cc1cccc(Cl)c1CN1CCc2cc(-c3c(CF)nc(C)c([C@H](OC(C)(C)C)C(=O)O)c3N3CCC(C)(C)CC3)ccc2C1 [Example 158, (S)-2-(tert-Butoxy)-2-(5-(2-(2-chloro-6-methylbenzyl)-1,2,3,4-tetrahydroisoquinolin-6-yl)-4-(4,4-dimethylpiperidin-1-yl)-6-(fluoromethyl)-2-methylpyridin-3-yl)acetic Acid] — 3.6-fold lower, 5 nM
- CC1(C)CCN(c2c(-c3ccc4c(c3)CCN(c3nccc(N5CCOCC5)n3)C4)c(CN3CCC4(CCC4)CC3)nc(Cl)c2[C@H](OC(C)(C)C)C(=O)O)CC1 [Example 150, (S)-2-(6-((7-Azaspiro[3.5]nonan-7-yl)methyl)-2-chloro-4-(4,4-dimethylpiperidin-1-yl)-5-(2-(4-morpholinopyrimidin-2-yl)-1,2,3,4-tetrahydroisoquinolin-6-yl)pyridin-3-yl)-2-(tert-butoxy)acetic Acid] — 60-fold lower, 0.3 nM
- Cc1nc(C)c([C@H](OC(C)(C)C)C(=O)O)c(N2CCC(C)(C)CC2)c1-c1ccc2c(c1)CCN(c1nccc(N3CCC(C)(C)CC3)n1)C2 [Example 24, (2S)-2-(tert-Butoxy)-2-[4-(4,4-dimethylpiperidin-1-yl)-5-{2-[4-(4,4-dimethylpiperidin-1-yl)pyrimidin-2-yl}-1,2,3,4-tetrahydroisoquinolin-6-yl}-2,6-dimethylpyridin-3-yl]acetic Acid] — 2.2-fold lower, 8 nM
- Cc1cccc(Cl)c1CN1CCc2cc(-c3c(C(=O)N4CCC(C)(C)CC4)nc(C)c([C@H](OC(C)(C)C)C(=O)O)c3N3CCC(C)(C)CC3)ccc2C1 [Example 118, (S)-2-(tert-Butoxy)-2-(5-(2-(2-chloro-6-methylbenzyl)-1,2,3,4-tetrahydroisoquinolin-6-yl)-4-(4,4-dimethylpiperidin-1-yl)-6-(4,4-dimethylpiperidine-1-carbonyl)-2-methylpyridin-3-yl)acetic Acid] — 18-fold lower, 1 nM
- Cc1nc(CO)c(-c2ccc3c(c2)CCN(c2nccc(-c4cccnc4)n2)C3)c(N2CCC(C)(C)CC2)c1[C@H](OC(C)(C)C)C(=O)O [Example 164, (S)-2-(tert-Butoxy)-2-(4-(4,4-dimethylpiperidin-1-yl)-6-(hydroxymethyl)-2-methyl-5-(2-(4-(pyridin-3-yl)pyrimidin-2-yl)-1,2,3,4-tetrahydroisoquinolin-6-yl)pyridin-3-yl)acetic Acid] — 9-fold lower, 2 nM
- Cc1ncc(-c2ccc3c(c2)CCN(c2ncnc4c2oc2ccccc24)C3)c(N2CCC(C)(C)CC2)c1[C@H](OC(C)(C)C)C(=O)O [Example 49, (2S)-2-(tert-Butoxy)-2-[4-(4,4-dimethylpiperidin-1-yl)-2-methyl-5-(2-{8-oxa-3,5-diazatricyclo[7.4.0.0^2,7]trideca-1(9),2(7),3,5,10,12-hexaen-6-yl}-1,2,3,4-tetrahydroisoquinolin-6-yl)pyridin-3-yl]acetic Acid] — 18-fold lower, 1 nM
